Results published in article PMC8026324, “In Vitro Antiplasmodial, Heme Polymerization, and Cytotoxicity of Hydroxyxanthone Derivatives” (Journal of Tropical Medicine, 2021).
≈ marks a conversion by molar mass, not a printed value.

Legend:
[1] = system: Vero cells; assay: In vitro cytotoxicity test, MTT assay on Vero cell line; format: cell-based; conditions: for IC50: MTT assay
Protocol: The in vitro cytotoxicity test was conducted using the 3-(4,5-dimethylthiazol-2-yl)2,5-diphenyltetrazolium bromide (MTT) assay method on Vero cell line culture using the Anderson et al.'s modified method.
The cell was removed from the cryo medium. Then, the cell was thawed at 37°C. The liquid cell was subsequently transferred to the tube and a culture medium was added to a volume of 10 mL. Then, the suspension was centrifuged for 15 minutes so that it would form cell pellets. The supernatant was removed and 1 mL of culture medium was added to the cell pellets. Finally, the suspension was transferred to the Petri dish and incubated in the incubator with 5% of CO2 at 37°C.
The medium of Vero cell culture was removed, and then the cell was washed using a PBS solution with a volume of PBS ± 1/2 of the initial medium volume. This step was done twice and 1 mL of trypsin 0.25% was added. Subsequently, the cell was incubated in the CO2 incubator at 37°C for 3 minutes. Then, the cell was resuspended using 2 mL of culture medium and PBS solution was added up to 10 mL. The suspension was centrifuged for 15 minutes so that it formed pellets. Pellets were added with 1 mL of culture medium and resuspended. Take 10 μL of the cell suspension and density of cells was calculated.
Then, the cell was added with culture medium to 10 mL. A total of 100 μL of such suspensions was transferred into each well of the 96-well microplate, but three of the wells were emptied as medium controls. Subsequently, the microplate was incubated in a 5% CO2 incubator at 37°C.
Each hydroxyxanthone derivative compound was dissolved in DMSO, and a variety of concentrations were prepared in the medium. Each concentration of the testing compound was added into the 96-well microplate triplicately. Cell control and medium control were not given a testing compound solution. The medium control remained blank, while the cell control contained culture medium only. […] Then, the cell was incubated in a 5% CO2 incubator at 37°C for 24 hours.
After the cell was incubated for 24 hours, the medium was discarded and washed with PBS. Then, each well was added with 100 μL of 5 mg/mL of MTT solution. The 96-well microplate was incubated again in the incubator of CO2 at 37°C for 4 hours. Then, 100 μL of 10% of SDS in 0.01 MHCl was added. The cells were placed in a dark room at room temperature for 24 hours.
The absorbance was measured using the enzyme-linked immunosorbent assay (ELISA) reader at 595 nm wavelength. The cytotoxicity test on the Vero cells was done by calculating the percentage of Vero cell inhibition of the absorption value of the test compound, cell control, and medium control. The cytotoxic effect was expressed as IC50. The IC50 value was obtained from the probit analysis by using SPSS software (IBM Corp., Chicago). The degree of selectivity was expressed as a selectivity index. The selectivity index was obtained from the ratio between the IC50 cytotoxic effect on Vero cells and IC50 antiplasmodial activity on Plasmodium. A compound is said to be safe if the value of the selectivity index is >10 [20].

[2] = system: Hela; design: method as in earlier work; conditions: cited from earlier work
[3] = system: MCF-7; design: method as in earlier work; conditions: cited from earlier work

In the case of `O=c1c2c(O)cccc2oc2cc(O)cc(O)c12` [HX1, 1,6,8-trihydroxyxanthone], the IC50 ([1]; 24 hours incubation) is reported as 3.39 ± 0.435 mM, the IC50 ([1]; Chlorocebus sabaeus, Vero, 24 h, 24 hours incubation) is reported as 3.28 mM and the inhibition at 255.94 µM ([1]; Chlorocebus sabaeus, Vero, 24 h, 255.94 μM, read-out: Vero cell growth inhibition after 24 hours incubation) is reported as -50.3 ± 17.2%. It also gave an inhibition at 511.88 µM ([1]; Chlorocebus sabaeus, Vero, 24 h, 511.88 μM, read-out: Vero cell growth inhibition after 24 hours incubation) of -4.13 ± 8.21%, an inhibition at 1023.75 µM ([1]; Chlorocebus sabaeus, Vero, 24 h, 1023.75 μM, read-out: Vero cell growth inhibition after 24 hours incubation) of 15.9 ± 8.24% and an inhibition at 2047.5 µM ([1]; Chlorocebus sabaeus, Vero, 24 h, 2047.50 μM, read-out: Vero cell growth inhibition after 24 hours incubation) of 28 ± 5.69%. The inhibition at 4095 µM ([1]; Chlorocebus sabaeus, Vero, 24 h, 4095.00 μM, read-out: Vero cell growth inhibition after 24 hours incubation) was 45.9 ± 5.51%, the inhibition at 8190.01 µM ([1]; Chlorocebus sabaeus, Vero, 24 h, 8190.01 μM, read-out: Vero cell growth inhibition after 24 hours incubation) was 89.4 ± 1.9% and the IC50 ([1]; Chlorocebus sabaeus, Vero) was 802 µg/mL. For the same compound, the “Selectivity index (over strains 3D-7 and FCR-3)” value ([1]; cytotoxicity/antiplasmodium ratio on P. falciparum 3D-7 and FCR-3) was “more than 10”, the “Selectivity index 3D-7” value ([1]; ratio IC50 on Vero cell/IC50 on P. falciparum 3D-7) was 556.54 and the “Selectivity index FCR-3” value ([1]; ratio IC50 on Vero cell/IC50 on P. falciparum FCR-3) was 502.20. The “cytotoxicity on Hela (in words)” value [2] was “weak”, the “IC50 on Hela cell line” value ([2]; in vitro cytotoxicity) was 67.7 µg/mL (≈ 277 µM) and the “cytotoxicity on MCF-7 (in words)” value [3] was “weak”. The “IC50 on MCF-7 cell line” value ([3]; in vitro cytotoxicity) was 45 µg/mL (≈ 184 µM).
